# Tested on: RAMOS cells (Burkitt's lymphoma cell line)
# Assay: Anti-proliferation assay (CellTiter-Glo)
# Format: cell-based
# Conditions: Homo sapiens, 72 h, 3 days
# Description: In cell growth experiments, cells were seeded in 96-well cell culture plates at a density of 3000 of RAMOS cells/well in 100 μL of culture medium. 100 μL of the diluted solution containing the tested compound was added to the appropriate wells of the cell plate. After addition of the tested compound, the cells were incubated at 37° C. in an atmosphere of 5% CO2 for 3 days. CellTiter-Glo (CTG) reagent from the Promega CellTiter-Glo Luminescent Cell Viability Assay kit (#G7572) was added into an OptiPlate 96 (Perkin Elmer, White, Opaque, #6005299) in the dark, incubated for at least 2 hrs, and luminescence signal was read using Tecan Safire II Multi-Mode Plate Reader. The GI50 was calculated by nonlinear regression analysis using GraphPad Prism5 software.
# GI50 is the concentration for 50% of maximal inhibition of cell proliferation.
row,SMILES,GI50 [µM]
1,"Cc1sc2c(c1C)C(c1ccc(Cl)cc1)=N[C@@H](CC(=O)NCCOCCOCCOCCC(=O)NC1CCN(C(=O)c3ccc4c(c3)NC(=O)C4)CC1)c1nnc(C)n1-2 [Compound 110, (S)-3-(2-(2-(2-(2-(4-(4-chlorophenyl)-2,3,9-trimethyl-6H-thieno[3,2-f][1,2,4]triazolo[4,3-a][1,4]diazepin-6-yl)acetamido)ethoxy)ethoxy)ethoxy)-N-(1-(2-oxoindoline-6-carbonyl)piperidin-4-yl)propanamide]",> 1
2,"Cc1sc2c(c1C)C(c1ccc(Cl)cc1)=N[C@@H](CC(=O)NCCOCCOCCOCCC(=O)NC1CCCN(C(=O)c3ccc4c(c3)NC(=O)C4)C1)c1nnc(C)n1-2 (stereo partly drawn) [Compound 111, 3-(2-(2-(2-(2-((S)-4-(4-chlorophenyl)-2,3,9-trimethyl-6H-thieno[3,2-f][1,2,4]triazolo[4,3-a][1,4]diazepin-6-yl)acetamido)ethoxy)ethoxy)ethoxy)-N-(1-(2-oxoindoline-6-carbonyl)piperidin-3-yl)propanamide]",> 1
3,"Cc1sc2c(c1C)C(c1ccc(Cl)cc1)=N[C@@H](CC(=O)NCCOCCOCCOCCC(=O)NC1CCCN(C(=O)c3ccc4c(c3)CC(=O)N4)C1)c1nnc(C)n1-2 (stereo partly drawn) [Compound 112, 3-(2-(2-(2-(2-((S)-4-(4-chlorophenyl)-2,3,9-trimethyl-6H-thieno[3,2-f][1,2,4]triazolo[4,3-a][1,4]diazepin-6-yl)acetamido)ethoxy)ethoxy)ethoxy)-N-(1-(2-oxoindoline-5-carbonyl)piperidin-3-yl)propanamide]",0.1 to 1
4,"Cc1sc2c(c1C)C(c1ccc(Cl)cc1)=N[C@@H](CC(=O)NCCOCCOCCOCCNc1cc(-c3ccc4c(c3)NC(=O)C4)ccn1)c1nnc(C)n1-2 [Compound 113, (S)-2-(4-(4-chlorophenyl)-2,3,9-trimethyl-6H-thieno[3,2-f][1,2,4]triazolo[4,3-a][1,4]diazepin-6-yl)-N-(2-(2-(2-(2-((4-(2-oxoindolin-6-yl)pyridin-2-yl)amino)ethoxy)ethoxy)ethoxy)ethyl)acetamide]",0.1 to 1
5,"Cc1sc2c(c1C)C(c1ccc(Cl)cc1)=N[C@@H](CC(=O)NCCOCCOCCOCCOCCNc1ccc(-c3ccc4c(c3)CC(=O)N4)cn1)c1nnc(C)n1-2 [Compound 114, (S)-2-(4-(4-chlorophenyl)-2,3,9-trimethyl-6H-thieno[3,2-f][1,2,4]triazolo[4,3-a][1,4]diazepin-6-yl)-N-(14-((5-(2-oxoindolin-5-yl)pyridin-2-yl)amino)-3,6,9,12-tetraoxatetradecyl)acetamide]",0.1 to 1
6,"Cc1sc2c(c1C)C(c1ccc(Cl)cc1)=N[C@@H](CC(=O)NCCOCCOCCOCCOCCOCCNc1ccc(-c3ccc4c(c3)CC(=O)N4)cn1)c1nnc(C)n1-2 [Compound 115, (S)-2-(4-(4-chlorophenyl)-2,3,9-trimethyl-6H-thieno[3,2-f][1,2,4]triazolo[4,3-a][1,4]diazepin-6-yl)-N-(17-((5-(2-oxoindolin-5-yl)pyridin-2-yl)amino)-3,6,9,12,15-pentaoxaheptadecyl)acetamide]",0.1 to 1
7,"Cc1sc2c(c1C)C(c1ccc(Cl)cc1)=N[C@@H](CC(=O)NCCOCCOCCNc1ccc(-c3ccc4c(c3)CC(=O)N4)cn1)c1nnc(C)n1-2 [Compound 116, (S)-2-(4-(4-chlorophenyl)-2,3,9-trimethyl-6H-thieno[3,2-f][1,2,4]triazolo[4,3-a][1,4]diazepin-6-yl)-N-(2-(2-(2-((5-(2-oxoindolin-5-yl)pyridin-2-yl)amino)ethoxy)ethoxy)ethyl)acetamide]",0.001 to 0.1
8,"Cc1sc2c(c1C)C(c1ccc(Cl)cc1)=N[C@@H](CC(=O)NCCOCCNc1ccc(-c3ccc4c(c3)CC(=O)N4)cn1)c1nnc(C)n1-2 [Compound 117, (S)-2-(4-(4-chlorophenyl)-2,3,9-trimethyl-6H-thieno[3,2-f][1,2,4]triazolo[4,3-a][1,4]diazepin-6-yl)-N-(2-(2-((5-(2-oxoindolin-5-yl)pyridin-2-yl)amino)ethoxy)ethyl)acetamide]",0.001 to 0.1
9,"Cc1sc2c(c1C)C(c1ccc(Cl)cc1)=N[C@@H](CC(=O)Nc1ccc(OCCOCCOCCNc3ccc(-c4ccc5c(c4)CC(=O)N5)cn3)cc1)c1nnc(C)n1-2 [Compound 118, (S)-2-(4-(4-chlorophenyl)-2,3,9-trimethyl-6H-thieno[3,2-f][1,2,4]triazolo[4,3-a][1,4]diazepin-6-yl)-N-(4-(2-(2-(2-((5-(2-oxoindolin-5-yl)pyridin-2-yl)amino)ethoxy)ethoxy)ethoxy)phenyl)acetamide]",0.1 to 1
10,"Cc1sc2c(c1C)C(c1ccc(Cl)cc1)=N[C@@H](CC(=O)N1CCN(c3ccc(-c4ccc5c(c4)CC(=O)N5)cn3)CC1)c1nnc(C)n1-2 [Compound 119, (S)-5-(6-(4-(2-(4-(4-chlorophenyl)-2,3,9-trimethyl-6H-thieno[3,2-f][1,2,4]triazolo[4,3-a][1,4]diazepin-6-yl)acetyl)piperazin-1-yl)pyridin-3-yl)indolin-2-one]",0.1 to 1
11,Cc1sc2c(c1C)C(c1ccc(Cl)cc1)=N[C@@H](CC(=O)NCCOCCOCCC(=O)N1CCN(c3ccc(-c4ccc5c(c4)CC(=O)N5)cn3)CC1)c1nnc(C)n1-2 [Compound 120],0.001 to 0.1
12,"Cc1sc2c(c1C)C(c1ccc(Cl)cc1)=N[C@@H](CC(=O)NCCOCCOCCOCCNc1ccc(-c3ccc4c(c3)CC(=O)N4C)cn1)c1nnc(C)n1-2 [Compound 121, (S)-2-(4-(4-chlorophenyl)-2,3,9-trimethyl-6H-thieno[3,2-f][1,2,4]triazolo[4,3-a][1,4]diazepin-6-yl)-N-(2-(2-(2-(2-((5-(1-methyl-2-oxoindolin-5-yl)pyridin-2-yl)amino)ethoxy)ethoxy)ethoxy)ethyl)acetamide]",0.1 to 1
13,"Cc1sc2c(c1C)C(c1ccc(Cl)cc1)=N[C@@H](CC(=O)N1CCC(N3CCN(c4ccc(-c5ccc6c(c5)CC(=O)N6)cn4)CC3)CC1)c1nnc(C)n1-2 [Compound 123, (S)-5-(6-(4-(1-(2-(4-(4-chlorophenyl)-2,3,9-trimethyl-6H-thieno[3,2-f][1,2,4]triazolo[4,3-a][1,4]diazepin-6-yl)acetyl)piperidin-4-yl)piperazin-1-yl)pyridin-3-yl)indolin-2-one]",0.001 to 0.1
14,"Cc1sc2c(c1C)C(c1ccc(Cl)cc1)=N[C@@H](CC(=O)NCCNc1ccc(-c3ccc4c(c3)CC(=O)N4)cn1)c1nnc(C)n1-2 [Compound 124, (S)-2-(4-(4-chlorophenyl)-2,3,9-trimethyl-6H-thieno[3,2-f][1,2,4]triazolo[4,3-a][1,4]diazepin-6-yl)-N-(2-((5-(2-oxoindolin-5-yl)pyridin-2-yl)amino)ethyl)acetamide]",0.001 to 0.1
15,"Cc1sc2c(c1C)C(c1ccc(Cl)cc1)=N[C@@H](CC(=O)NC1CCN(c3ccc(-c4ccc5c(c4)CC(=O)N5)cn3)CC1)c1nnc(C)n1-2 [Compound 125, (S)-2-(4-(4-chlorophenyl)-2,3,9-trimethyl-6H-thieno[3,2-f][1,2,4]triazolo[4,3-a][1,4]diazepin-6-yl)-N-(1-(5-(2-oxoindolin-5-yl)pyridin-2-yl)piperidin-4-yl)acetamide]",0.001 to 0.1
16,"Cc1sc2c(c1C)C(c1ccc(Cl)cc1)=N[C@@H](CC(=O)NCCCCCNc1ccc(-c3ccc4c(c3)CC(=O)N4)cn1)c1nnc(C)n1-2 [Compound 126, (S)-2-(4-(4-chlorophenyl)-2,3,9-trimethyl-6H-thieno[3,2-f][1,2,4]triazolo[4,3-a][1,4]diazepin-6-yl)-N-(5-((5-(2-oxoindolin-5-yl)pyridin-2-yl)amino)pentyl)acetamide]",0.001 to 0.1
17,"Cc1sc2c(c1C)C(c1ccc(Cl)cc1)=N[C@@H](CC(=O)NCC1CCN(c3ccc(-c4ccc5c(c4)CC(=O)N5)cn3)CC1)c1nnc(C)n1-2 [Compound 127, (S)-2-(4-(4-chlorophenyl)-2,3,9-trimethyl-6H-thieno[3,2-f][1,2,4]triazolo[4,3-a][1,4]diazepin-6-yl)-N-((1-(5-(2-oxoindolin-5-yl)pyridin-2-yl)piperidin-4-yl)methyl)acetamide]",0.1 to 1
18,"Cc1sc2c(c1C)C(c1ccc(Cl)cc1)=N[C@@H](CC(=O)NC1CN(c3ccc(-c4ccc5c(c4)CC(=O)N5)cn3)C1)c1nnc(C)n1-2 [Compound 128, (S)-2-(4-(4-chlorophenyl)-2,3,9-trimethyl-6H-thieno[3,2-f][1,2,4]triazolo[4,3-a][1,4]diazepin-6-yl)-N-(1-(5-(2-oxoindolin-5-yl)pyridin-2-yl)azetidin-3-yl)acetamide]",0.1 to 1
19,"Cc1sc2c(c1C)C(c1ccc(Cl)cc1)=N[C@@H](CC(=O)NC1CCN(c3ccc(-c4ccc5c(c4)CC(=O)N5)cn3)C1)c1nnc(C)n1-2 (stereo partly drawn) [Compound 129, 2-((S)-4-(4-chlorophenyl)-2,3,9-trimethyl-6H-thieno[3,2-f][1,2,4]triazolo[4,3-a][1,4]diazepin-6-yl)-N-(1-(5-(2-oxoindolin-5-yl)pyridin-2-yl)pyrrolidin-3-yl)acetamide]",0.001 to 0.1
20,"Cc1sc2c(c1C)C(c1ccc(Cl)cc1)=N[C@@H](CC(=O)NCCOCCC(=O)N1CCN(c3ccc(-c4ccc5c(c4)CC(=O)N5)cn3)CC1)c1nnc(C)n1-2 [Compound 130, (S)-2-(4-(4-chlorophenyl)-2,3,9-trimethyl-6H-thieno[3,2-f][1,2,4]triazolo[4,3-a][1,4]diazepin-6-yl)-N-(2-(3-oxo-3-(4-(5-(2-oxoindolin-5-yl)pyridin-2-yl)piperazin-1-yl)propoxy)ethyl)acetamide]",0.001 to 0.1
21,"Cc1sc2c(c1C)C(c1ccc(Cl)cc1)=N[C@@H](CC(=O)Nc1ccc(OCCOCCOCCOCCOCCNc3ccc(-c4ccc5c(c4)CC(=O)N5)cn3)cc1)c1nnc(C)n1-2 [Compound 131, (S)-2-(4-(4-chlorophenyl)-2,3,9-trimethyl-6H-thieno[3,2-f][1,2,4]triazolo[4,3-a][1,4]diazepin-6-yl)-N-(4-((14-((5-(2-oxoindolin-5-yl)pyridin-2-yl)amino)-3,6,9,12-tetraoxatetradecyl)oxy)phenyl)acetamide]",0.001 to 0.1

# Source: US11542274B1, “Therapeutic compounds and methods of use thereof” (AGENCY FOR SCIENCE, TECHNOLOGY AND RESEARCH (A*STAR), priority 2019, dated 2023)
